The series can be described thus: MTS-PMS cytotoxicity bioassay, MDA-MB 231. Conditions: human, MDA-MB 231 breast cancer cells.

Each structure is given as a SMILES string.

Source text: 5000 cells/well were used for testing.
The drug Doxorubicin was used as system suitability (SST) reference.

`COc1cccc2c1C(=O)c1c(O)c3c(c(O)c1C2=O)C[C@@](O)(C(=O)CO)C[C@@H]3O[C@H]1C[C@H](N)[C@H](O)[C@H](C)O1` [Doxorubicin] returned a cytotoxicity at 100 μm of 45%.

The values are drawn from patent US20240383950A1, “RECOMBINANT GLYCAN BINDING PROTEINS AND ITS USE” (UNICHEM LABORATORIES LIMITED, priority 2021, published 2024).
